Data published in patent US6384077B1, “Highly purified EPA for treatment of schizophrenia and related disorders” (Laxdale Limited, priority 1999, dated 2002).

How the values were obtained:
[1] = molecular target: human brain enzyme FACL-4 (Homo sapiens, UniProt O60488); conditions: cited from earlier work
phospholipase A2 = conditions: cited from earlier work
[2] = system: patients who had schizophrenia; assay: randomised, placebo-controlled study of ethyl-EPA in clozapine-treated patients with schizophrenia (PANSS, MADRS); format: in vivo, human; conditions: 12 weeks, patients on clozapine
Excerpt: Although the case reports of the effects of ethyl-EPA are convincing and in some cases dramatic, unequivocal proof of its efficacy must come from randomised, placebo-controlled trials. We therefore set up a randomised, placebo-controlled study of EPA in 34 patients who had schizophrenia according to the criteria set out in the American Psychiatric Association's Diagnostic and Statistical Manual of Mental Disorders (4th edition, DSM-IV). All of these patients were being treated with clozapine drugs but all remained seriously ill, with schizophrenic symptoms. Like many schizophrenics, some of the patients were also depressed. All were assessed at baseline and after 12 weeks using the Positive and Negative Symptom Scale for Schizophrenia (PANSS) and the Montgomery-Asberg Depression Rating Scale (MADRS). After giving informed consent, all the patients were randomised on a double blind basis to one of three groups: placebo, or 1 g or 2 g of ethyl-EPA per day in the form of 0.5 g capsules. Placebo and EPA capsules were indistinguishable from one another in appearance. All the patients improved to some degree so all the changes are percentage improvements

tardive dyskinesia = assay: patients with neuroleptic-induced tardive dyskinesia treated with EPA; format: in vivo, human; conditions: several patients
Excerpt: The typical neuroleptics in some patients produce a distressing condition called tardive dyskinesia. […] The patient experiences uncontrollable twitching and other movements. These can affect any part of the body but commonly affect the face where they are particularly distressing. Facial twitches and movements, including protrusions and uncontrollable movements of the tongue occur. […] Movements have become substantially less and in some patients have disappeared completely.

schizophrenia [3] = assay: case history: schizophrenia, ethyl-EPA added to haloperidol; format: in vivo, human; conditions: person
Excerpt: A person had become ill with schizophrenia. They had florid hallucinations and paranoia, but also withdrew themself from most of their friendships and lived alone. […] They lived alone, ceased to communicate with most of their friends, and went around to town alone and muttering to […]. Their psychiatrist heard about ethyl-EPA and decided to try it in addition to the standard drug. After eight weeks on treatment with 4 g/day their outlook was transformed. […] They were even persuaded to go on holiday with their family where they enjoyed themself and made new friends. The EPA therefore reversed the extreme withdrawal which appeared to have been exaggerated by haloperidol.

[4] = system: attention deficit hyperactivity disorder (ADHD); assay: case report: child with ADHD; format: in vivo, human; conditions: before ethyl-EPA
Excerpt: Attention deficit hyperactivity disorder (ADHD): ADHD and closely related conditions like attention deficit disorder and conduct disorders are commonly found in children. Occasionally they may be successfully treated by behaviour modification and other psychological techniques or by careful attention to diet. However, in most cases, paradoxical treatment with one of the stimulant drugs related in their action to amphetamine is required. Methylphenidate and dextroamphetamine are the commonest used. A child with serious ADHD since infancy was driving their parents to distraction. […] The parents were concerned about the long term consequences of stimulant drugs. The child was therefore tried on two capsules of pure ethyl-EPA per day. […] The child became less tense and irritable, less hyperactive, more open to reasoned discussion and enormously less disruptive both at home and school. Even when their methylphenidate was stopped, their behaviour remained improved.

[5] = system: schizophrenia, drug-induced obesity; format: in vivo, human; conditions: in vivo
Excerpt: Obesity is another common side effect of antipsychotropic drugs. In this respect some of the newer drugs like olanzapine frequently seem to be even worse offenders than the typical neuroleptics. […] They preferred the olanzapine but it still left their withdrawn and unable to communicate normally with friends or family. To their distress it caused them to put on over 10 kg in weight. Their doctor decided to test ethyl-EPA in addition to olanzapine.

schizophrenia [6] = assay: case history: schizophrenia, E-EPA added to clozapine; format: in vivo, human; conditions: patient not responding to typical neuroleptics; clozapine up to 900 mg/day
Excerpt: This mechanism is thought to be responsible for their rapid effects on the so-called “positive” symptoms of schizophrenia (such as hallucinations, delusions and thought disorder). […] The D2 blocking action is also responsible for many of the adverse effects of these drugs, which include extrapyramidal movement disorders, excess prolactin secretion, and tardive dyskinesias. Examples of widely used drugs in this class include chlorpromazine, thioridazine, haloperidol, pimozide, flupenthixol and sulpiride.
These may include blockade of one or more of the other dopamine receptors such as D1, D3 or D4, and also usually including blockade of one or more classes of serotonin receptors. […] They may also have actions at other receptors, including histamine, glutamate and acetyl choline receptors.
The patient was treated with clozapine, eventually reaching a maximum dose of 900 mg/day.
E-EPA in a dose of 2 g/day was then administered in addition to clozapine.

Chain of human brain enzyme FACL-4 (O60488 whole entry): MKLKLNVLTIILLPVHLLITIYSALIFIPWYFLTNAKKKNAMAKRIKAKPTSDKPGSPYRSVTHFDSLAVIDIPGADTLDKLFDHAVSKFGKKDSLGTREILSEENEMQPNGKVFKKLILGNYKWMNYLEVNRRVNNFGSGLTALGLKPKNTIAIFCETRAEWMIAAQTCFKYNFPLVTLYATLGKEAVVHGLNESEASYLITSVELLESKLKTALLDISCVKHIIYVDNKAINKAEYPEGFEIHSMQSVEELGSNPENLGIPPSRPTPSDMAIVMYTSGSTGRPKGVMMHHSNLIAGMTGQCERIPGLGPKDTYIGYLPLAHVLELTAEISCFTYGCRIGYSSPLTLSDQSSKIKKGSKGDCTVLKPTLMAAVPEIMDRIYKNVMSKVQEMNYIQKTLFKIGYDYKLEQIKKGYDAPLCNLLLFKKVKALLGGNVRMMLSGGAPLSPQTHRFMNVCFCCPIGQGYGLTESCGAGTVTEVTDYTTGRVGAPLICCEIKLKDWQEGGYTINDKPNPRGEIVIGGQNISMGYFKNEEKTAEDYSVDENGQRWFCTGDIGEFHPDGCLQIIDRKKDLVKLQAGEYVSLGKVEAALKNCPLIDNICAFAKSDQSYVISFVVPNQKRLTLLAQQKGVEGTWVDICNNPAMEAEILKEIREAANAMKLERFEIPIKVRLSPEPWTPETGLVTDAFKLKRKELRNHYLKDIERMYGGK

In the case of CCCCC/C=C\C/C=C\C/C=C\C/C=C\CCCC(=O)O [AA, arachidonic acid, reference compound], the “FACL-4 activity for AA relative to DHA” value ([1]; relative to DHA) is given as “more than twice as great as for DHA”.

For CC/C=C\C/C=C\C/C=C\C/C=C\C/C=C\CCCC(=O)O [EPA, all cis (or all z) 5,8, 11, 14, 17-eicosapentaenoic acid], the “inhibition of phospholipase A2” value (phospholipase A2) is listed as “known to inhibit phospholipase A2”, the “MADRS, percentage improvement from baseline” value ([2]; 1 g ethyl-EPA per day) is listed as 35.7% and the “Total PANSS, percentage improvement from baseline” value ([2]; 1 g ethyl-EPA per day) is listed as 18.8%. For the same compound, the “negative PANSS, percentage improvement from baseline” value ([2]; 1 g ethyl-EPA per day) was 22.7%, the “positive PANSS, percentage improvement from baseline” value ([2]; 1 g ethyl-EPA per day) was 20.0% and the “MADRS, percentage improvement from baseline” value ([2]; 2 g ethyl-EPA per day) was 35.7%. For the same compound, the “Total PANSS, percentage improvement from baseline” value ([2]; 2 g ethyl-EPA per day) was 17.1%, the “negative PANSS, percentage improvement from baseline” value ([2]; 2 g ethyl-EPA per day) was 22.7% and the “positive PANSS, percentage improvement from baseline” value ([2]; 2 g ethyl-EPA per day) was 25.0%. The tardive dyskinesia (tardive dyskinesia) was “substantial relief from tardive dyskinesia”, the “affinity for FACL-4” value [1] was “unusually high affinity” and the “FACL-4 activity for EPA, greater than for AA” value ([1]; relative to AA) was 50%.

With O=C(CCCN1CCC(O)(c2ccc(Cl)cc2)CC1)c1ccc(F)cc1 [haloperidol, reference compound] the “effect on hallucinations, drug alone” value (schizophrenia [3]) was “stopped most of the hallucinations”.

With COC(=O)C(c1ccccc1)C1CCCCN1 (stereo not drawn) [methylphenidate, reference compound] the “control of ADHD” value [4] was “only partially controlled”.

For Cc1cc2c(s1)Nc1ccccc1N=C2N1CCN(C)CC1 [olanzapine, reference compound], the weight put on [5] was “over 10 kg”.

For OCCOCCN1CCN(C2=Nc3ccccc3Sc3ccccc32)CC1 [quetiapine, reference compound], the “clinical response to neuroleptic alone” value (schizophrenia [6]) was “no substantial benefit”.

In the case of Cc1nc2n(c(=O)c1CCN1CCC(c3noc4cc(F)ccc34)CC1)CCCC2 [risperidone, reference compound], the “clinical response to neuroleptic alone” value (schizophrenia [6]) was “no substantial benefit”.
